Read-outs that look alike come from different tables or passages of the source.
How the values were obtained:
ME 180 = assay: Incorporation of 3H-thymidine, ME 180; type: cell-based; conditions: Homo sapiens
AML-193 = assay: Incorporation of 3H-thymidine, AML-193; conditions: Homo sapiens, read-out: TdR IC50 AML-193 (nM)
RARα [1] = molecular target: T1, RARα (Homo sapiens, UniProt P10276); assay: Co-transfection assay, RARα agonist activity; type: cell-based; design: expressed in transfected cells; host or cells: CV-1 (African green monkey kidney fibroblasts); conditions: CV-1 cells, luciferase reporter, read-out: RARα Pot
T1 sequence (P10276 1-462): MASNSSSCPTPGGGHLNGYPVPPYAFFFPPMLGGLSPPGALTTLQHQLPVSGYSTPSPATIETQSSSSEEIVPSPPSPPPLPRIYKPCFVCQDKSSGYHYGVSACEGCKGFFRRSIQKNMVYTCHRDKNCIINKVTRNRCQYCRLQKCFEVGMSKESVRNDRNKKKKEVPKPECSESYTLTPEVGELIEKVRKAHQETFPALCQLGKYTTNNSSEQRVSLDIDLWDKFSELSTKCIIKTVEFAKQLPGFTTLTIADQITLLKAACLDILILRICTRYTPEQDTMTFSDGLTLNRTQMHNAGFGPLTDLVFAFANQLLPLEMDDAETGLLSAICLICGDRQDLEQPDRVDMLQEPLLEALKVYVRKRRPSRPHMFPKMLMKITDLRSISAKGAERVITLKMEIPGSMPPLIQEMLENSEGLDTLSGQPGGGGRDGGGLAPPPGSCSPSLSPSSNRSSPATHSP

RARγ [2] = molecular target: T2, RARγ (Homo sapiens, UniProt P13631); assay: Co-transfection assay, RARγ agonist activity; type: cell-based; design: expressed in transfected cells; host or cells: CV-1 (African green monkey kidney fibroblasts); conditions: CV-1 cells, luciferase reporter, read-out: RARγ Pot
T2 sequence (P13631 1-454): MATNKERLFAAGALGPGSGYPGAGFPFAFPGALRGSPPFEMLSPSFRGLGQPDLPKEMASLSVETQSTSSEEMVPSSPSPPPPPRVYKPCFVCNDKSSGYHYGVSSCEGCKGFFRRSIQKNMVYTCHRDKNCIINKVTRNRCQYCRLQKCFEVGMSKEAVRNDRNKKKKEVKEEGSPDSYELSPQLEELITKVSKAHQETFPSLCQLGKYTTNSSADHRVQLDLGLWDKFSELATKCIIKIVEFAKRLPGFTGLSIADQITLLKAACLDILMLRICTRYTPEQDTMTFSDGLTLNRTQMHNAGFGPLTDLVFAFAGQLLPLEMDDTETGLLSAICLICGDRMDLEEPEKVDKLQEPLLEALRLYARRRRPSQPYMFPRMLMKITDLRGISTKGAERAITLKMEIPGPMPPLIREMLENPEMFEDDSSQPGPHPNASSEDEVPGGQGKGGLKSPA

RXRγ = molecular target: T3, RXRγ (Mus musculus, UniProt P28705); assay: Receptor binding, RXRγ; conditions: tritiated retinoid competition
T3 construct: expressed in transfected cells; host or cells: CV-1 (African green monkey kidney fibroblasts)
T3 sequence (P28705 1-463): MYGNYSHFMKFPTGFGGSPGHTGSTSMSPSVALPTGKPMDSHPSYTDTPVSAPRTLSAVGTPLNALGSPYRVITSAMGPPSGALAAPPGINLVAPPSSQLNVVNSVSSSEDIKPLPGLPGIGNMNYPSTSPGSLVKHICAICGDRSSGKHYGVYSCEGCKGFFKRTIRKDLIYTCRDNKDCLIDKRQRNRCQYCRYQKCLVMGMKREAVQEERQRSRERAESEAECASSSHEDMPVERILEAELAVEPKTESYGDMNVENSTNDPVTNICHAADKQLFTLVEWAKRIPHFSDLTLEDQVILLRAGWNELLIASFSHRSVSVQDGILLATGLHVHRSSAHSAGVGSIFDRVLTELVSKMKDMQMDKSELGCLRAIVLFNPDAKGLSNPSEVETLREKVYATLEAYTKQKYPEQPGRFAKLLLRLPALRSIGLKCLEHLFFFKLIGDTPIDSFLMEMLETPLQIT

RARβ [3] = molecular target: T4, RARβ (Homo sapiens, UniProt P10826); assay: Receptor binding, RARβ; conditions: tritiated retinoid competition
T4 sequence (P10826 1-448 isoform P10826-2): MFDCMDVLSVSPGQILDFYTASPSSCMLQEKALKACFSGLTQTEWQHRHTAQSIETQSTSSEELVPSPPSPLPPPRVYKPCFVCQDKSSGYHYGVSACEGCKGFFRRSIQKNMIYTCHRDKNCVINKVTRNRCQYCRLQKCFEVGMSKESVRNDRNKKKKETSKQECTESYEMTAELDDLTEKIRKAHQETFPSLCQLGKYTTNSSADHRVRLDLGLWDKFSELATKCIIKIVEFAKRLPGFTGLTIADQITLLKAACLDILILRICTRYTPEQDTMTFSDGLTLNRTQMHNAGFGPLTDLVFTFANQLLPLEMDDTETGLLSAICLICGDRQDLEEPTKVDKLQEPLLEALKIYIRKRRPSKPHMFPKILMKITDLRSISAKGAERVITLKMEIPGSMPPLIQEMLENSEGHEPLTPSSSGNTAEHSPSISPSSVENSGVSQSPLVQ

RARγ [4] = molecular target: T2, RARγ; assay: Receptor binding, RARγ; conditions: tritiated retinoid competition
RARα [5] = molecular target: T1, RARα; assay: Receptor binding, RARα; conditions: tritiated retinoid competition
RARβ [6] = molecular target: T4, RARβ; assay: Co-transfection assay, RARβ agonist activity; type: cell-based; design: expressed in transfected cells; host or cells: CV-1 (African green monkey kidney fibroblasts); conditions: CV-1 cells, luciferase reporter, read-out: RARβ Pot
RPMI 8226 = assay: Incorporation of 3H-thymidine, RPMI 8226; type: cell-based; conditions: Homo sapiens, 96 hours incubation, then 6 hours 3H-thymidine, read-out: TdR IC50 RPMI 8226

| Structure (SMILES) | IC50 (AML-193) [nM] | Kd (RARβ [3]) [nM] | Kd (RARγ [4]) [nM] | Kd (RARα [5]) [nM] | also measured |
| --- | --- | --- | --- | --- | --- |
| CC1=C(/C=C/C(C)=C\C=C\C(C)=C\C(=O)O)C(C)(C)CCC1 [Compound 9-cis, 9-cis retinoic acid] | 113 | – | – | – | IC50 (ME 180; ME-180, read-out: TdR IC50 ME 180 (nM)): 180 nM |
| CC(/C=C/CC1(c2cc3c(cc2C)C(C)(C)CCC3(C)C)CC1)=C\C(=O)O [Compound 102, (2E, 4E)-6-[(3,5,5,8,8-Pentamethyl-5,6,7,8-tetrahydronaphthalen-2-yl)cyclopropan-1-yl]-3-methyl hexadienoic acid] | – | > 5000 | > 5000 | > 5000 | EC50 (RARα [1]): > 10000 nM; EC50 (RARγ [2]): > 10000 nM; Kd (RXRγ): 153 nM; EC50 (RARβ [6]): > 10000 nM |
| CC(/C=C/CC1(c2cc(C(C)(C)C)cc(C(C)(C)C)c2)CC1)=C\C(=O)O [Compound 105, (2E, 4E)-6-[(3,5-di-t-butylphenyl)cyclopropan-1-yl]-3-methyl hexadienoic acid] | – | > 5000 | > 5000 | > 5000 | – |
| C/C(=C\c1ccc(C(=O)O)cc1)c1ccc2c(c1)C(C)(C)CCC2(C)C [TTNPB] | 0.1 | – | – | – | IC50 (RPMI 8226): 0.2 nM; IC50 (ME 180; ME-180, 96 hours incubation, then 6 hours 3H-thymidine, read-out: TdR IC50 ME 180): 0.4 nM |

— patent US6005007A, “Retinoids, methods for their production and use” (priority 1997, dated 1999)
